Like-named read-outs stand apart in the source and are kept apart here.
Legend:
[1] = system: 53 CRE and CPE strains; test: MICrange, MIC50, MIC80, MIC90 for 53 bacterial isolates (Example 5, Table 5); assay type: cell-based; details: 53 bacterial isolates
[2] = system: P. aeruginosa; test: MIC, broth microdilution, CDC/FDA Antibiotic Resistance Isolate Bank (Example 7, Tables 10, 15); assay type: cell-based; details: for MIC: Pseudomonas aeruginosa, read-out: MIC
[3] = 26 metallo-carbapenemase-producing P. aeruginosa strains, β-lactamase inhibitor µg/mL in parentheses
[4] = 96 strains of P. aeruginosa, β-lactamase inhibitor µg/mL in parentheses

C[C@H]1COc2c(N3CCN(C)CC3)c(F)cc3c(=O)c(C(=O)O)cn1c23 [Levofloxacin, levofloxacin]
> 64 µg/mL: MIC ([2]; P. aeruginosa KUB No. 5597, AR Bank # 100) | MIC ([2]; P. aeruginosa KUB No. 5602, AR Bank # 105) | MIC ([2]; P. aeruginosa KUB No. 5673, AR Bank # 240) | MIC ([2]; P. aeruginosa KUB No. 5678, AR Bank # 245) | MIC ([2]; P. aeruginosa KUB No. 5799, AR Bank # 456) | MIC ([2]; P. aeruginosa KUB No. 5806, AR Bank # 864)
64 µg/mL: MIC80 ([1]; read-out: MIC80) | MIC90 ([1]; read-out: MIC90) | MIC ([2]; P. aeruginosa KUB No. 5083, AR Bank # 250) | MIC ([2]; P. aeruginosa KUB No. 5551, AR Bank # 54) | MIC ([2]; P. aeruginosa KUB No. 5589, AR Bank # 92) | MIC ([2]; P. aeruginosa KUB No. 5591, AR Bank # 94) | MIC ([2]; P. aeruginosa KUB No. 5600, AR Bank # 103) | MIC ([2]; P. aeruginosa KUB No. 5605, AR Bank # 108) | MIC ([2]; P. aeruginosa KUB No. 5662, AR Bank # 229) | MIC ([2]; P. aeruginosa KUB No. 5664, AR Bank # 231) | MIC ([2]; P. aeruginosa KUB No. 5668, AR Bank # 235) | MIC ([2]; P. aeruginosa KUB No. 5672, AR Bank # 239) | MIC ([2]; P. aeruginosa KUB No. 5677, AR Bank # 244) | MIC ([2]; P. aeruginosa KUB No. 5682, AR Bank # 249) | MIC ([2]; P. aeruginosa KUB No. 5690, AR Bank # 257) | MIC ([2]; P. aeruginosa KUB No. 5698, AR Bank # 265) | MIC ([2]; P. aeruginosa KUB No. 5788, AR Bank # 443) | MIC ([2]; P. aeruginosa KUB No. 5800, AR Bank # 457) | MIC ([2]; P. aeruginosa KUB No. 5805, AR Bank # 863)
2 µg/mL: MIC ([2]; P. aeruginosa KUB No. 5666, AR Bank # 23) | MIC ([2]; P. aeruginosa KUB No. 5695, AR Bank # 262) | MIC ([2]; P. aeruginosa KUB No. 5696, AR Bank # 263) | MIC ([2]; P. aeruginosa KUB No. 5801, AR Bank # 458)
>64 µg(mL): MIC against 26 metallo-carbapenemase-producing strains MIC90 [2, 3]
4 µg/mL: MIC ([2]; P. aeruginosa KUB No. 5694, AR Bank # 261) | MIC ([2]; P. aeruginosa KUB No. 5798, AR Bank # 455) | MIC ([2]; P. aeruginosa KUB No. 5804, AR Bank # 862)
0.5 µg/mL: MIC ([2]; P. aeruginosa KUB No. 579, AR Bank # 447) | MIC ([2]; P. aeruginosa KUB No. 5670, AR Bank # 237) | MIC ([2]; P. aeruginosa KUB No. 5671, AR Bank # 238) | MIC ([2]; P. aeruginosa KUB No. 5689, AR Bank # 256) | MIC ([2]; P. aeruginosa KUB No. 5691, AR Bank # 258) | MIC ([2]; P. aeruginosa KUB No. 5692, AR Bank # 259) | MIC ([2]; P. aeruginosa KUB No. 5752, AR Bank # 356) | MIC ([2]; P. aeruginosa KUB No. 5787, AR Bank # 441)
16 µg/mL: MIC50 ([1]; read-out: MIC50) | MIC ([2]; P. aeruginosa KUB No. 5669, AR Bank # 236) | MIC ([2]; P. aeruginosa KUB No. 5675, AR Bank # 242) | MIC ([2]; P. aeruginosa KUB No. 5676, AR Bank # 243) | MIC ([2]; P. aeruginosa KUB No. 5681, AR Bank # 248) | MIC ([2]; P. aeruginosa KUB No. 5685, AR Bank # 252) | MIC ([2]; P. aeruginosa KUB No. 5687, AR Bank # 254)
0.008 µg/mL: MIC ([2]; P. aeruginosa KUB No. 5813, AR Bank # 508) | MIC ([2]; P. aeruginosa KUB No. 5815, AR Bank # 510)
1 µg/mL: MIC ([2]; P. aeruginosa KUB No. 5680, AR Bank # 247) | MIC ([2]; P. aeruginosa KUB No. 5686, AR Bank # 253) | MIC ([2]; P. aeruginosa KUB No. 5756, AR Bank # 360)
64 µg(mL): MIC against 96 strains of P. aeruginosa MIC90 [2, 4]
0.064 µg/mL: MIC ([2]; P. aeruginosa KUB No. 5823, AR Bank # 518)
0.016 µg/mL: MIC ([2]; P. aeruginosa KUB No. 5834, AR Bank # 529)
8 µg/mL: MIC ([2]; P. aeruginosa KUB No. 5665, AR Bank # 232) | MIC ([2]; P. aeruginosa KUB No. 5667, AR Bank # 234) | MIC ([2]; P. aeruginosa KUB No. 5684, AR Bank # 251) | MIC ([2]; P. aeruginosa KUB No. 5701, AR Bank # 268) | MIC ([2]; P. aeruginosa KUB No. 5705, AR Bank # 272) | MIC ([2]; P. aeruginosa KUB No. 5747, AR Bank # 351) | MIC ([2]; P. aeruginosa KUB No. 5750, AR Bank # 354) | MIC ([2]; P. aeruginosa KUB No. 5754, AR Bank # 358) | MIC ([2]; P. aeruginosa KUB No. 5755, AR Bank # 359) | MIC ([2]; P. aeruginosa KUB No. 5802, AR Bank # 459)
0.001 µg/mL: MIC ([2]; P. aeruginosa KUB No. 5816, AR Bank # 511) | MIC ([2]; P. aeruginosa KUB No. 5819, AR Bank # 514) | MIC ([2]; P. aeruginosa KUB No. 5821, AR Bank # 516)
> 0.064 µg/mL: MIC ([2]; P. aeruginosa KUB No. 5818, AR Bank # 513) | MIC ([2]; P. aeruginosa KUB No. 5820, AR Bank # 515)
32 µg(mL): MIC against 26 metallo-carbapenemase-producing strains MIC50 [2, 3] | MIC against 96 strains of P. aeruginosa MIC50 [2, 4]
0.004 µg/mL: MIC ([2]; P. aeruginosa KUB No. 5817, AR Bank # 512)
32 µg/mL: MIC ([2]; P. aeruginosa KUB No. 5561, AR Bank # 64) | MIC ([2]; P. aeruginosa KUB No. 5587, AR Bank # 90) | MIC ([2]; P. aeruginosa KUB No. 5592, AR Bank # 95) | MIC ([2]; P. aeruginosa KUB No. 5607, AR Bank # 110) | MIC ([2]; P. aeruginosa KUB No. 5608, AR Bank # 111) | MIC ([2]; P. aeruginosa KUB No. 5663, AR Bank # 230) | MIC ([2]; P. aeruginosa KUB No. 5674, AR Bank # 241) | MIC ([2]; P. aeruginosa KUB No. 5679, AR Bank # 246) | MIC ([2]; P. aeruginosa KUB No. 5688, AR Bank # 255) | MIC ([2]; P. aeruginosa KUB No. 5693, AR Bank # 260) | MIC ([2]; P. aeruginosa KUB No. 5697, AR Bank # 264) | MIC ([2]; P. aeruginosa KUB No. 5699, AR Bank # 266) | MIC ([2]; P. aeruginosa KUB No. 5700, AR Bank # 267) | MIC ([2]; P. aeruginosa KUB No. 5702, AR Bank # 269) | MIC ([2]; P. aeruginosa KUB No. 5703, AR Bank # 270) | MIC ([2]; P. aeruginosa KUB No. 5704, AR Bank # 271) | MIC ([2]; P. aeruginosa KUB No. 5748, AR Bank # 352) | MIC ([2]; P. aeruginosa KUB No. 5749, AR Bank # 353) | MIC ([2]; P. aeruginosa KUB No. 5751, AR Bank # 355) | MIC ([2]; P. aeruginosa KUB No. 5753, AR Bank # 357) | MIC ([2]; P. aeruginosa KUB No. 5785, AR Bank # 439) | MIC ([2]; P. aeruginosa KUB No. 5786, AR Bank # 440) | MIC ([2]; P. aeruginosa KUB No. 5789, AR Bank # 444) | MIC ([2]; P. aeruginosa KUB No. 5790, AR Bank # 445) | MIC ([2]; P. aeruginosa KUB No. 5793, AR Bank # 449)
0.032 µg/mL: MIC ([2]; P. aeruginosa KUB No. 5814, AR Bank # 509) | MIC ([2]; P. aeruginosa KUB No. 5831, AR Bank # 526) | MIC ([2]; P. aeruginosa KUB No. 5832, AR Bank # 527) | MIC ([2]; P. aeruginosa KUB No. 5833, AR Bank # 528)
